# Laboratory results published in paper PMC4722887 (Oncology Reports, 2015).
# System: CD8 T cells of HLA-A*0201-transgenic HHD mice
# Format: in vivo, mouse
Substance,Immunogenicity when coupled to the surface of the liposomes (HHD mice),"CD8 T-cell immune responses against the native epitope, peptide emulsified in IFA (injected in HHD mice)"
"1: native hTERT peptide, start position 540 (540–548) (ILAKFLHWL) [Peptide 1]",no immunogenicity,–
14: heteroclitical peptide derived from #13 (p944) (LQAYRFHAV) [Peptide 14],–,only weak
